Assay results from patent publication US20260193295A1, “CILAGICIN COMPOUNDS AND METHODS OF USE THEREOF” (priority 2022, published 2026).
In brackets after ≈: the same amount, converted by molar mass. Where two headings read alike, the source gives them in different places. Positions of bridges follow the written chain, without caps; N, C: chain ends. Non-standard residues stand in square brackets, D forms with d. Residues, ends and D or L forms follow the SMILES beside them. *: point of attachment. Ileψ(thiazoline)Cys = CC[C@H](C)[C@H](N)C1=N[C@H](C(=O)*)CS1; Hexanoyl(6-Ph) = O=C(CCCCCc1ccccc1)*; X2 = O=C(c1cc2ccccc2n1Cc1ccccc1)*; dOrn = NCCC[C@@H](N)C(=O)O; X1 = CC[C@H](C)CCCCC(=O)*; X3 = Cc1ccccc1/C=C/C(=O)*; dDab = NCC[C@@H](N)C(=O)O; Dab = NCC[C@H](N)C(=O)O

Key:
Streptococcus pyrogens = assay type: cell-based
Method: (§1) MIC assay were conducted using the protocol recommended by the Clinical and Laboratory Standards Institute.(37) Culture conditions (temperature, medium) are detailed in Table 3. All compounds were dissolved in sterile DMSO (ATCC, USA) to give a concentration of 6.4 mg/mL. Vancomycin hydrochloride was used as positive controls. Tested compounds were serially diluted across 96-well plates using a 2-fold serial dilution in a volume of 50 μL. An overnight culture of an assay strain was diluted 5,000-fold in fresh medium. 50 μL of this dilution was added into each well, giving a final volume of 100 μL in each well. Compounds were assayed at concentrations ranging from 64 μg/mL to 0.06 μg/mL. The top and bottom rows of each plate were filled with 100 μL of media to avoid edge effects. […] For Clostridium difficile plates were statically incubated under anaerobic conditions (Vinyl anaerobic chamber, 37° C., 5% H2, 5% CO2, 90% N2). For Streptococcus pneumoniae plates were statically incubated under aerobic conditions supplemented with 5% C02 (37° C.). All MICs were performed in technical duplicate (n=2) and repeated three independent times (n=3).

Enterococcus faecium = assay type: cell-based
Method: as §1

Streptococcus pneumoniae = assay type: cell-based
Method: as §1

Streptococcus agalactiae = assay type: cell-based
Method: as §1

Staphylococcus aureus = assay type: cell-based
Method: as §1

S. aureus USA300 = test: Resistance studies (daily serial passage at sub-MIC); assay type: cell-based, Staphylococcus aureus; conditions: daily serial passage at sub-MIC levels of antibiotic
Method: A single colony of S. aureus USA300 was inoculated in 5 mL LB broth and grown overnight at 37° C. with continuous shaking (200 rpm). The overnight culture was then diluted 1:5,000 into fresh LB. 50 μL aliquots of dilute cells were transferred into individual wells of 96-well plates containing 50 μL of serially diluted cilagicin, amphomycin (AG Scientific, USA) or bacitracin (Sigma, USA). Plates were statically incubated at 37° C. After 24 hours, the MIC was recorded. […] The MIC was determined as described above. This process was repeated daily for 25 days. For bacitracin, the LB medium was supplemented with 50 μg/mL ZnCl2. For amphomycin, the medium was supplemented with 100 μg/mL CaCl2-2H2O. Experiments were performed three independent times (n=3).

[1] = tested on: vancomycin-resistant Enterococci clinical isolates; conditions: cited from earlier work
[2] = Enterococci clinical isolate code 781
[3] = Enterococci clinical isolate code 782
[4] = Enterococci clinical isolate code 783
[5] = Enterococci clinical isolate code 784
[6] = Enterococci clinical isolate code 785
[7] = Enterococci clinical isolate code 786
[8] = Enterococci clinical isolate code 787
[9] = Enterococci clinical isolate code 788
[10] = Enterococci clinical isolate code 789
[11] = Enterococci clinical isolate code 790
[12] = Enterococci clinical isolate code 791
[13] = Enterococci clinical isolate code 792
[14] = Enterococci clinical isolate code 793
[15] = Enterococci clinical isolate code 794
[16] = Enterococci clinical isolate code 795
[17] = Enterococci clinical isolate code 796
[18] = Enterococci clinical isolate code 797
[19] = Enterococci clinical isolate code 798
[20] = Enterococci clinical isolate code 799
[21] = Enterococci clinical isolate code 800
[22] = Enterococci clinical isolate code 801
[23] = Enterococci clinical isolate code 802
[24] = Enterococci clinical isolate code 803
[25] = Enterococci clinical isolate code 804
[26] = Enterococci clinical isolate code 805
[27] = Enterococci clinical isolate code 806
[28] = Enterococci clinical isolate code 807
[29] = Enterococci clinical isolate code 808
[30] = Enterococci clinical isolate code 809
[31] = Enterococci clinical isolate code 810

CC(C)[C@@H]1NC(=O)[C@H](Cc2ccc(O)cc2)NC(=O)CNC(=O)[C@@H](CC(=O)O)NC(=O)[C@@H](CC(N)=O)NC(=O)CNC(=O)[C@H](CC(=O)O)NC(=O)[C@@H](CCN)NC(=O)[C@@H](NC(=O)[C@@H](CO)NC(=O)CCCCCc2ccccc2)[C@@H](C)OC(=O)[C@H](Cc2ccccc2)NC(=O)[C@H](CCN)NC1=O [Cilagicin L3] ({Hexanoyl(6-Ph)}-[dS]T[dDab]DG[dN][dD]GYV[Dab]F; ester 2-C)
MIC (Streptococcus pyrogens): 1 µg/mL (≈ 0.699 µM) | MIC (Enterococcus faecium): 64 µg/mL (≈ 44.7 µM) | MIC (Streptococcus pneumoniae): 4 µg/mL (≈ 2.8 µM) | MIC (Streptococcus agalactiae): 16 µg/mL (≈ 11.2 µM) | MIC (Staphylococcus aureus): 8 µg/mL (≈ 5.59 µM)

CC(C)[C@@H]1NC(=O)[C@H](Cc2ccc(O)cc2)NC(=O)CNC(=O)[C@@H](CC(=O)O)NC(=O)[C@@H](CC(N)=O)NC(=O)CNC(=O)[C@H](CC(=O)O)NC(=O)[C@@H](CCN)NC(=O)[C@@H](NC(=O)[C@@H](CO)NC(=O)c2cc3ccccc3n2Cc2ccccc2)[C@@H](C)OC(=O)[C@H](Cc2ccccc2)NC(=O)[C@H](CCN)NC1=O [Cilagicin L4] (X2-[dS]T[dDab]DG[dN][dD]GYV[Dab]F; ester 2-C)
MIC (Staphylococcus aureus): 8 µg/mL (≈ 5.37 µM)

CC[C@H](C)CCCCC(=O)N[C@H](CO)C(=O)N[C@@H]1C(=O)N[C@H](CCN)C(=O)N[C@@H](CC(=O)O)C(=O)NCC(=O)N[C@H](CC(N)=O)C(=O)N[C@H](CC(=O)O)C(=O)NCC(=O)N[C@@H](Cc2ccc(O)cc2)C(=O)N[C@@H](C(C)C)C(=O)N[C@@H](CCN)C(=O)N[C@@H](Cc2ccccc2)C(=O)O[C@@H]1C [Cilagicin L5] (X1-[dS]T[dDab]DG[dN][dD]GYV[Dab]F; ester 2-C)
MIC (Streptococcus pyrogens): 1 µg/mL (≈ 0.716 µM) | MIC (Enterococcus faecium): 64 µg/mL (≈ 45.8 µM) | MIC (Streptococcus pneumoniae): 4 µg/mL (≈ 2.86 µM) | MIC (Streptococcus agalactiae): 8 µg/mL (≈ 5.73 µM) | MIC (Staphylococcus aureus): 4 µg/mL (≈ 2.86 µM)

Cc1ccccc1/C=C/C(=O)N[C@H](CO)C(=O)N[C@@H]1C(=O)N[C@H](CCN)C(=O)N[C@@H](CC(=O)O)C(=O)NCC(=O)N[C@H](CC(N)=O)C(=O)N[C@H](CC(=O)O)C(=O)NCC(=O)N[C@@H](Cc2ccc(O)cc2)C(=O)N[C@@H](C(C)C)C(=O)N[C@@H](CCN)C(=O)N[C@@H](Cc2ccccc2)C(=O)O[C@@H]1C [Cilagicin L6] (X3-[dS]T[dDab]DG[dN][dD]GYV[Dab]F; ester 2-C)
MIC (Streptococcus pyrogens): 4 µg/mL (≈ 2.86 µM) | MIC (Enterococcus faecium): >64 µg/mL | MIC (Streptococcus pneumoniae): 32 µg/mL (≈ 22.8 µM) | MIC (Streptococcus agalactiae): 64 µg/mL (≈ 45.7 µM) | MIC (Staphylococcus aureus): 64 µg/mL (≈ 45.7 µM)

CC[C@H](C)[C@H](N)C1=N[C@H](C(=O)N[C@@H](CC(C)C)C(=O)N[C@H](CCC(=O)O)C(=O)N[C@H](C(=O)N[C@H]2CCCCNC(=O)[C@H](CC(N)=O)NC(=O)[C@@H](CC(=O)O)NC(=O)[C@H](Cc3cnc[nH]3)NC(=O)[C@@H](Cc3ccccc3)NC(=O)[C@H]([C@@H](C)CC)NC(=O)[C@@H](CCCN)NC2=O)[C@@H](C)CC)CS1 [bacitracin] ({Ileψ(thiazoline)Cys}-L[dE]IK[dOrn]I[dF]H[dD]N; lactam 4-C)
development of resistance by S. aureus (S. aureus USA300): rapidly developed resistance

Penicillin
MIC [1, 2]: 2 µg/mL | MIC [1, 3]: 2 µg/mL | MIC [1, 4]: >32 µg/mL | MIC [1, 5]: 2 µg/mL | MIC [1, 6]: 4 µg/mL | MIC [1, 7]: 1 µg/mL | MIC [1, 8]: 32 µg/mL | MIC [1, 9]: 1 µg/mL | MIC [1, 10]: ≤0.12 µg/mL | MIC [1, 11]: >32 µg/mL | MIC [1, 12]: 2 µg/mL | MIC [1, 13]: >32 µg/mL | MIC [1, 14]: 2 µg/mL | MIC [1, 15]: >32 µg/mL | MIC [1, 16]: 4 µg/mL | MIC [1, 17]: 2 µg/mL | MIC [1, 18]: 0.5 µg/mL | MIC [1, 19]: 1 µg/mL | MIC [1, 20]: 2 µg/mL | MIC [1, 21]: 2 µg/mL | MIC [1, 22]: 1 µg/mL | MIC [1, 23]: >32 µg/mL | MIC [1, 24]: >32 µg/mL | MIC [1, 25]: 4 µg/mL | MIC [1, 26]: 2 µg/mL | MIC [1, 27]: 8 µg/mL | MIC [1, 28]: >32 µg/mL | MIC [1, 29]: 2 µg/mL | MIC [1, 30]: 1 µg/mL | MIC [1, 31]: 2 µg/mL

Teicoplanin
MIC [1, 2]: >64 µg/mL | MIC [1, 3]: 0.5 µg/mL | MIC [1, 4]: 2 µg/mL | MIC [1, 5]: 0.5 µg/mL | MIC [1, 6]: 0.5 µg/mL | MIC [1, 7]: 0.25 µg/mL | MIC [1, 8]: >64 µg/mL | MIC [1, 9]: 1 µg/mL | MIC [1, 10]: >64 µg/mL | MIC [1, 11]: 1 µg/mL | MIC [1, 12]: 0.5 µg/mL | MIC [1, 13]: 1 µg/mL | MIC [1, 14]: 0.5 µg/mL | MIC [1, 15]: 64 µg/mL | MIC [1, 16]: 0.5 µg/mL | MIC [1, 17]: 1 µg/mL | MIC [1, 18]: 1 µg/mL | MIC [1, 19]: 1 µg/mL | MIC [1, 20]: 0.5 µg/mL | MIC [1, 21]: 0.5 µg/mL | MIC [1, 22]: 1 µg/mL | MIC [1, 23]: 64 µg/mL | MIC [1, 24]: >64 µg/mL | MIC [1, 25]: 0.5 µg/mL | MIC [1, 26]: 0.5 µg/mL | MIC [1, 27]: 1 µg/mL | MIC [1, 28]: 1 µg/mL | MIC [1, 29]: 0.5 µg/mL | MIC [1, 30]: 64 µg/mL | MIC [1, 31]: 0.5 µg/mL

amphomycin
development of resistance by S. aureus (S. aureus USA300): rapidly developed resistance
